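Protocol summary: plate cells (96-well), add compound at 5 concentrations, incubate 48 h, interpolate endpoints linearly. TGI: total growth inhibition.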
Columns and labels:
Assay in all cases: NCI tumour cell line growth inhibition, 48 h
UACC-62 melanoma = tested on: UACC-62 melanoma
NCI-H226 lung = tested on: NCI-H226 lung
HT29 colon = tested on: HT29 colon
OVCAR-3 ovarian = tested on: OVCAR-3 ovarian
LOX IMVI melanoma = tested on: LOX IMVI melanoma
HOP-62 NSCLC = tested on: HOP-62 NSCLC
HCT-116 colon = tested on: HCT-116 colon
MOLT-4 leukemia = tested on: MOLT-4 leukemia
SK-MEL-28 melanoma = tested on: SK-MEL-28 melanoma
K-562 leukemia = tested on: K-562 leukemia
HOP-92 NSCLC = tested on: HOP-92 NSCLC
A498 renal = tested on: A498 renal
COLO 205 colon = tested on: COLO 205 colon

Row | Compound | TGI (UACC-62 melanoma) [µM] | TGI (NCI-H226 lung) [µM] | TGI (HT29 colon) [µM] | TGI (OVCAR-3 ovarian) [µM] | TGI (LOX IMVI melanoma) [µM] | TGI (HOP-62 NSCLC) [µM] | TGI (HCT-116 colon) [µM] | TGI (MOLT-4 leukemia) [µM] | TGI (SK-MEL-28 melanoma) [µM] | TGI (K-562 leukemia) [µM] | TGI (HOP-92 NSCLC) [µM] | TGI (A498 renal) [µM] | TGI (COLO 205 colon) [µM]
1 | C=C[C@@]1(C)CCC2(O)C(CCC3C2(C)CCC[C@@]3(C)COC(=O)CC(=O)OC)C1 (stereo partly specified) | 32.3 | 55.9 | 33.2 | 32.5 | 31.1 | 34 | 32.3 | 36 | 30.9 | 63.5 |  |  | 
2 | CCN(CC)CCNc1ccc2ncn3c4c(OC)ccc(OC)c4c(=O)c1c23 | 57.5 | > 100 |  | > 100 |  | > 100 | 17.3 | 30.4 | 39.2 | 49.4 | 31.2 | > 100 | 20.4
3 | Cc1cc(C)nc(NS(=O)(=O)c2ccc(NN=c3c4ccccc4n(C)c4ccccc34)cc2)n1 | > 100 | > 100 | > 100 | > 100 | 96.7 | > 100 | > 100 | 79.6 | 67.7 | 66.2 | > 100 |  | > 100
4 | C=C(C)C#CC(O)(C(=O)OC1CCN(C)CC1)C(C)C (stereo unspecified) | > 100 | > 100 | > 100 | > 100 | > 100 | > 100 | > 100 | > 100 | > 100 | > 100 |  |  | > 100
5 | O=c1[nH]c(=O)n(C2CC(O)C(CO)O2)cc1OCCc1ccccc1 (stereo unspecified) | > 100 | > 100 | > 100 | > 100 | > 100 | > 100 | > 100 | > 100 | > 100 | > 100 |  |  | > 100
6 | CC(NC(=O)C(OC(=O)C(C)NC(=O)OC(C)(C)C)C(C)C)C(=O)OC(C(=O)O)C(C)C (stereo unspecified) | > 100 | > 100 | > 100 | > 100 |  | > 100 |  | > 100 | > 100 | > 100 | > 100 |  | > 100
7 | CC(=O)OCCOCNC(=S)N/N=C/c1ccc2ccccc2n1 | 47.6 | > 100 | > 100 | > 100 | > 100 | > 100 | > 100 | > 100 | > 100 | > 100 |  | > 100 | 46.6
8 | NCCC(=O)N[C@H](Cc1cc(O)c(O)c(SCC(NC(=O)CC[C@H](N)C(=O)O)C(=O)NCC(=O)O)c1)C(=O)O (stereo partly specified) | > 50 | > 50 | > 50 |  |  | > 50 | > 50 |  | > 50 | > 50 | > 50 | > 50 | > 50
9 | C/C(=N/NC(=O)c1ccncc1)c1ccc(NC(=O)C(=O)Nn2c(=S)[nH]c3ccccc3c2=O)cc1 | > 100 | > 100 | > 100 | > 100 | > 100 | > 100 | > 100 | > 100 | > 100 |  | > 100 | > 100 | > 100
10 | O=c1cc(CO)n(CCc2c[nH]c3ccccc23)cc1O | > 100 |  | > 100 | 75.1 | > 100 | > 100 | > 100 | 47.8 |  |  | 99.7 |  | > 100
11 | CC1(c2cccc3c2C2(O)C=CC4(CCC32)OCCO4)OCCO1 (stereo unspecified) | > 100 | > 100 | > 100 | > 100 | > 100 | > 100 | > 100 | > 100 | > 100 | > 100 |  | > 100 | > 100
12 | CC1=CCC2(C#N)CCC1C2O (stereo unspecified) | > 100 | > 100 | > 100 | > 100 | > 100 | > 100 | > 100 | > 100 | > 100 | > 100 |  | > 100 | > 100
13 | NC(=O)c1cc(-c2ccc(-n3ccnc3)cc2)n[nH]c1=O | > 100 |  |  |  |  | > 100 | > 100 | > 100 | > 100 |  | > 100 | > 100 | > 100
14 | COc1ccc(N(C)CN(C)c2nc(N(C)C)nc(N(C)C)n2)cc1 | > 100 |  | > 100 | > 100 | > 100 | > 100 | > 100 | > 100 | > 100 | > 100 | > 100 | > 100 | > 100
15 | CCC(CC)C(=O)OC[n+]1ccc(-c2c(COC(=O)NC(C)C)c(COC(=O)NC(C)C)c3n2CCC3)cc1 |  | > 100 |  | > 100 |  | > 100 |  | > 100 |  | > 100 | > 100 | > 100 | > 100
16 | C=C[C@@H](OCOCC[Si](C)(C)C)[C@@H](CC)OC(CCCOC(=O)C(C)(C)C)OC (stereo partly specified) | 81.3 | 81.6 | > 100 | > 100 |  | > 100 | 52.8 | > 100 | > 100 | > 100 | > 100 | > 100 | 95.1
17 | COC(=O)c1ccc(Oc2nc3ccccc3nc2-c2cccs2)cc1 | > 100 |  | > 100 | > 100 | > 100 | 24.9 | > 100 | > 100 | > 100 |  |  |  | > 100
18 | N=C(N)C1CN(CCc2cnc[nH]2)C(=O)NC1=O (stereo unspecified) | > 100 |  | > 100 | > 100 |  | > 100 | > 100 | > 100 | > 100 |  | > 100 | > 100 | > 100
19 | CN1CCC(CNC(=O)CCCCCCCCC(=O)NCC2(c3ccccc3)CCN(C)CC2)(c2ccccc2)CC1 | > 100 | > 100 | > 100 | > 100 | > 100 | > 100 | > 100 | > 100 | > 100 | > 100 |  | > 100 | > 100
20 | CC1(C)OCC2(CO1)CSCCCSCC1(COC(C)(C)OC1)CSCCCSC2 | > 100 |  | > 100 | > 100 | > 100 | > 100 | > 100 | > 100 | > 100 | > 100 | > 100 |  | > 100

Row | Compound | TGI (UACC-62 melanoma) [µM] | TGI (NCI-H226 lung) [µM] | TGI (HT29 colon) [µM] | TGI (OVCAR-3 ovarian) [µM] | TGI (LOX IMVI melanoma) [µM] | TGI (HOP-62 NSCLC) [µM] | TGI (HCT-116 colon) [µM] | TGI (MOLT-4 leukemia) [µM] | TGI (SK-MEL-28 melanoma) [µM] | TGI (K-562 leukemia) [µM] | TGI (HOP-92 NSCLC) [µM] | TGI (A498 renal) [µM] | TGI (COLO 205 colon) [µM]
21 | O=c1[nH]c(=O)n(C2CC(O)C(CO)O2)cc1NN=NCCc1ccccc1 (stereo unspecified) | > 100 | > 100 | > 100 | > 100 | > 100 | > 100 | > 100 | > 100 | > 100 | > 100 |  |  | > 100
22 | CCCCCCCC(=O)OC[C@@H](C[As](=O)(O)O)OC(=O)CCCCCCC | 23.4 | 18.6 | 28.1 |  |  | 32.9 | 22.6 | 18.6 | 26.6 | 51.4 | 37.6 | 24 | 34.3
23 | COc1ccc(N)c(C(O)CCNC(C)=O)c1 (stereo unspecified) | > 100 | > 100 | > 100 | > 100 | > 100 |  | > 100 | > 100 |  |  | > 100 | > 100 | > 100
24 | CCC(CS(=O)(=O)O)[N+](=O)[O-] (stereo unspecified) | > 100 | > 100 | > 100 | > 100 | > 100 | > 100 | > 100 | > 100 | > 100 | > 100 |  | > 100 | > 100
25 | COC1(C(C)(C)C)C=C(C(C)(C)C)P(=O)(O)O1 (stereo unspecified) | > 100 |  | > 100 | > 100 | > 100 | > 100 | > 100 |  | > 100 | > 100 | > 100 | > 100 | > 100
26 | N#Cc1nc(CSCc2ccccc2)oc1N | > 100 | > 100 | > 100 | > 100 |  | > 100 | > 100 | > 100 | > 100 |  | > 100 | > 100 | > 100
27 | COc1ccc(-c2cc(-c3ccc(Cl)cc3)n(C3OC(CO)C(O)C(O)C3O)c(=S)c2C#N)cc1 (stereo unspecified) | > 100 |  | > 100 |  | > 100 | > 100 | > 100 | > 100 | > 100 | > 100 | > 100 |  | > 100
28 | COc1ccc(C2=C(Cl)c3cc(OC)c(OC)cc3C2=O)cc1OC | 29.6 | > 100 | > 100 | 6.56 | 24.7 | 30.4 | 15.2 | > 100 |  |  | 4 | 32 | 16.2
29 | O=C(c1ccco1)C1CC(c2ccc3ccccc3c2O)=NN1 (stereo unspecified) | > 100 | > 100 | > 100 | > 100 |  | > 100 | > 100 | > 100 | > 100 | > 100 | > 100 | > 100 | > 100
30 | N#Cc1nc(C2CC2)oc1N | > 100 | > 100 | > 100 | > 100 | > 100 | > 100 | > 100 | > 100 | > 100 | > 100 | > 100 |  | > 100
31 | C=CCC1C(=O)C(C(=O)OC)N2CCc3c([nH]c4ccccc34)C12 (stereo unspecified) | > 100 |  | > 100 | > 100 |  | > 100 | > 100 | > 100 | > 100 | > 100 | > 100 | > 100 | > 100
32 | CCSc1c(C)c2c(n(Cc3ccc(OC)cc3)c1=O)Cc1ccccc1C2 | > 100 | > 100 | 72.2 | > 100 | 76.2 | > 100 | 32.5 | 14.8 | > 100 | 60.9 |  |  | > 100
33 | C#CCSc1nc(N)c2ncn(C3OC(CO)C(O)C3O)c2n1 (stereo unspecified) |  |  | > 100 | > 100 | > 100 | > 100 | > 100 | > 100 | > 100 | > 100 |  | > 100 | > 100
34 | Cc1cccc(-n2c(C)nc3ccc(NC4OC(CO)C(O)C(O)C4O)cc3c2=O)c1 (stereo unspecified) | > 100 | > 100 | > 100 | > 100 | > 100 | > 100 | > 100 | > 100 | > 100 | > 100 |  | > 100 | > 100
35 | COC(=O)/C=C/c1cnc2c(c1)oc(=O)n2CCc1ccccn1 | > 100 | > 100 | > 100 | > 100 | > 100 | > 100 | > 100 | > 100 | > 100 | > 100 |  | > 100 | > 100
36 | CN(C)/C(N)=N/C(N)=Nc1cccc(Cl)c1 | > 100 | 79.3 | > 100 | > 100 | > 100 | > 100 | > 100 | > 100 | > 100 | > 100 |  |  | 49.8
37 | Nc1nc(N)c(C2=CCN(Cc3ccccc3)CC2)c(=O)[nH]1 | > 100 | > 100 | > 100 | > 100 |  | > 100 | > 100 | > 100 | > 100 | > 100 | > 100 | > 100 | > 100
38 | O=C(O)c1c[nH]c2c(=O)[nH]cnc12 | > 100 |  | > 100 | > 100 | > 100 | > 100 | > 100 | > 100 | > 100 | > 100 | > 100 |  | > 100
39 | Cn1c(NN)nc(-c2ccc([N+](=O)[O-])cc2)c(C#N)c1=O | 29 | 28.7 | 28.7 | 34.3 | 35.2 | 27.1 | 25.4 |  | 25 | > 100 |  |  | 47.7
40 | CCOC(=O)[C@@H]1C[C@H]1c1ccc(O)c(O)c1 | 34.9 | > 100 | > 100 | > 100 |  | > 100 | 28.6 | > 100 | > 100 | 51.3 | > 100 |  | > 100
